For one compound, Plasma lutein concentration results are on record in US9622970B2, “Pharmaceutical composition containing lutein and antioxidant for treating and preventing human disease” (priority 2014, dated 2017).

The nature of this series: Plasma lutein concentration in chickens fed lutein or preparation of lutein (HPLC). It is filed as in vivo, chicken. As to conditions: diet with 15 mg lutein/kg for 15 days. The method, then:
Chickens (50), weighing 1.0±0.2 kg, were randomly divided into two treatments, with 25 chickens each. Chickens were individually housed in cages measuring 0.2×0.2 m, and were submitted to a lighting program of 16 h light/day. Chickens were kept under a temperature of 20±5° C. Feed and water were supplied ad libitum.
After two weeks of washout period, when the chickens were fed lutein or preparation of lutein with basal diet, two groups were fed the basal diets lutein or preparation of lutein for a period of 15 days. Lutein contents were determined using a HPLC method. The basal diet contained 0.5 mg lutein/kg. The two diets were formulated to contain the same level of 15 mg lutein/kg. All feeds were prepared every day.
Morning blood samples were taken on day 0, and days 3, 6, 12 for lutein analysis. The number of eggs laid by each chicken was counted during the experiment. Blood samples were obtained by puncture of the vena ulnaris. One milliliter of blood was sampled from each chicken. The plasma was separated by centrifugation. Plasma lutein concentrations have been detected. […]
A single gradient-type HPLC system was used for the parallel analysis of plasma concentration of lutein. The HPLC systems consisted of two solvent-delivery systems detected with a 436-nm and a 280-nm filter. The samples were analyzed by HPLC method. Lutein was quantified by determining the peak area at 445 nm. […]

For the compound `CC1=C[C@H](O)CC(C)(C)[C@H]1/C=C/C(C)=C/C=C/C(C)=C/C=C/C=C(C)/C=C/C=C(C)/C=C/C1=C(C)C[C@@H](O)CC1(C)C` [Lutein, lutein], the Plasma lutein concentration was 1.20 ± 0.10 μg lutein/ml.
